Test results as given in patent US7214767B2, “VHL peptide” (Hiroshi Kanno, priority 2005, dated 2007).

How the values were obtained:
[1] = test system: neural stem cells; assay: Cytotoxicity of the method of introduction into cells; assay type: cell-based
Text: It became clear from this that VHL (157–171) has an activity of inducing neuronal differentiation.

[2] = test system: Parkinson's model rat; assay: Paw reaching test after grafting of VHL peptide-introduced neural stem cells; assay type: in vivo; conditions: peptide-introduced neural stem cells grafted to striatum
Method: (§1) Next, it was studied whether the symptom could be improved by grafting of neural stem cells into which VHL (157–171) oligopeptide was introduced within the central nervous system of a nerve disease animal. Parkinson's model rat as a nerve disease animal was prepared by injection of microdose of 6-hydroxydopamine into brain of rat and depletion of unilateral dopamine producing cells. Two weeks later, apomorphine induced rotation was studied and rat rotating not less than 7 times per one minute was determined as Parkinson's disease model. 10^5 neural stem cells into which VHL (157–171) oligopeptide was introduced were grafted to striatum of cerebrum of rat. After grafting, apomorphine induced rotation was determined every week. […] As behavior analysis, paw reaching test (a test wherein an ability to eat pellets placed on stairs by extending one side injured leg is studied.) was conducted and […] (FIG. 6).

[3] = test system: Parkinson's model rat; assay: Apomorphine induced rotation after grafting of VHL peptide-introduced neural stem cells; assay type: in vivo; conditions: after two months; 10^5 peptide-introduced neural stem cells grafted to striatum
Method: as §1

[4] = test system: neural stem cells derived from the adult rat hippocampus; assay: VHL oligopeptide introduced in vitro into neural stem cells using BioPORTER Reagent; assay type: cell-based; conditions: for morphological change compared with control group: 8 hours after introduction
Method: The oligopeptide prepared according to the above-described method was introduced in vitro into neural stem cells derived from the adult rat hippocampus at a concentration of 10–1000 ng/ml using BioPORTER Reagent (BioPORTER protein delivery reagent: Gene Therapy Systems, Inc., San Diego, Calif., U.S.A.). […] When this was immunofluorescence stained at a concentration of 100 ng/mL 24 hours after introduction, it was confirmed that 72% of them was differentiated into neurons, and 12% was differentiated into neuroglia cells (FIG. 4). Thereby, it was clarified that VHL could induce neuronal differentiation even by the method of peptide introduction not by introduction of gene.

[5] = test system: Parkinson's disease model rat; assay: Pathological and histological study of the brain after grafting; assay type: in vivo; conditions: peptide-introduced neural stem cells grafted to striatum
Method: as §1

[6] = test system: skin stem cells; assay: Induction of differentiation of skin stem cells by VHL protein (FIG. 1); assay type: cell-based; conditions: neurofilament positive neuron
Text: FIG. 1 is a fluorescence photomicrograph showing induction of differentiation of skin stem cell into neurofilament positive neuron.
A VHL gene, which is the causative gene of von Hippel-Lindau disease, a hereditary disease causing brain tumor (hemangioblastoma) or renal cancer, is a kind of a tumor suppressor gene. This gene was isolated from human chromosome 3 by Dr. Zbar et al.'s group (U.S.A.) in 1993. It has been reported that the VHL gene and the protein are expressed in neurons. However, the function of this gene in the nervous system was unknown. We considered that the gene may be involved in the formation of the nervous system at fetal developmental stages and studied differentiation over time of neural stem cells isolated from a rat fetal brain. […] As a result, when VHL gene is introduced to express VHL protein, neural stem cells are differentiated into neurons. Thus, it was clarified that VHL protein has a function to induce differentiation of nerves.

[7] = 100 ng/mL, 24 hours after introduction, BioPORTER Reagent

Ac-TLKERCLQVVRSLVKKKWKMRRNQFWVKVQRGK-NH2 [VHL (157–171)-ANT]
cytotoxicity [1]: does not show cytotoxicity

TLKERCLQVVRSLVK [VHL (157–171) oligopeptide]
behavior analysis (paw reaching test, apomorphine induced rotation) compared with control group [2]: significant improvement | rats showing zero of apomorphine induced rotation [3]: about 30% | cells differentiated into neuroglia cells (immunofluorescence staining) [4, 7]: 12% | cells differentiated into neurons (immunofluorescence staining) [4, 7]: 72% | morphological change compared with control group ([4]; BioPORTER Reagent): more marked as compared with the control group | morphological change compared with control group ([4]; BioPORTER Reagent, listed as VHL peptide): marked as compared with control group | concentration at which neural stem cells showed inclination to differentiate to neuron morphologically, elongation of neural spine observed ([4]; after 4 hours, introduced at 10–1000 ng/ml using BioPORTER Reagent): not less than 10 ng/ml | grafted cells taken within the brain [5]: about 70% | type of the grafted cells taken within the brain [5]: most of them were neurofilament positive neurons | type of the grafted cells taken within the brain ([5]; listed as VHL gene): most of them are neuronal filaments

VHL protein: von Hippel-Lindau protein consisting of 213 full length amino acids
differentiation of skin stem cells into neurons [6]: induces differentiation of skin stem cells into neurons
